In US20020137929A1, “1 - (3-heterocyclylphenyl) isothiourea, -isourea, -guanidine and -amidine herbicidal agents” (Intellectual Property Department, BASF Aktiengesellschaft, priority 1998, published 2002):

Tests used:
[1] = system: TRZAWR (Wheat, Winter, cv Riband); experiment: Postemergence herbicidal evaluation; assay type: in vivo, Triticum aestivum; conditions: postemergence
How it was run: (§1)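 Each compound, dispersed in an acetone/water mix (50/50) carrying 0.5% TWEEN 20, is nozzle-sprayed at 40 psi on approximately two-week-old seedlings at about 0.0156–0.500 kg/ha. Plants are assessed 4–5 weeks afterward on a 0–9 scale relative to control; duplicate tests are averaged.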

[2] = system: ORYSAT (Rice, Tebonnet); experiment: Rice tolerance to post-transplant applications, flooded paddy conditions (Table IV); assay type: in vivo, Oryza sativa, (L.) Tebonnet; conditions: in vivo
How it was run: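 Herbicidal effect is judged by eye on a 0–9 scale versus control, 3–4 weeks after dosing. Dosing is into flood water kept 1.5–3 cm over the soil, at about 0.0313–0.500 kg/ha in aqueous/acetone 50/50 v/v, on 3–5 cm weeds and 1.5–2.5-leaf rice seedlings.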

[3] = system: GLXMA (Soybean); experiment: Preemergence herbicidal evaluation; assay type: in vivo, Glycine max; conditions: rated 4-5 weeks after treatment
Source text: Results of herbicide evaluation are expressed on a rating scale (0-9). The scale is based upon a visual observation of plant stand, vigor, malformation, size, chlorosis and overall plant appearance as compared with a control.
The preemergence herbicidal activity of the test compounds of the present invention is exemplified by the following tests in which the seeds of a variety of monocotyledonous and dicotyledonous plants are separately mixed with potting soil and planted on top of approximately one inch of soil in separate pint cups. After planting, the cups are sprayed with the selected aqueous acetone solution containing test compound in sufficient quantity to provide the equivalent of about 0.0156 to 0.500 kg per hectare of test compound per cup. The treated cups are then placed on greenhouse benches, watered and cared for in accordance with conventional greenhouse procedures. From four to five weeks after treatment, the tests are terminated and each cup is examined and rated according to the rating system provided in Example 37.
The compounds evaluated are reported by compound number given in Example 37.

[4] = system: MOOVA (Monochoria); experiment: Postemergence weed control under flooded paddy conditions; assay type: in vivo, Monochoria vaginalis; conditions: postemergence weeds, 3-4 weeks after treatment
How it was run: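 Containers holding 3–5 cm weeds and rice at 1.5–2.5 leaves are flooded to 1.5–3 cm above soil. Compound in 50/50 v/v aqueous/acetone is then added directly to the water, about 0.0313–0.500 kg/ha. Plants are kept in the greenhouse and rated 0–9 visually at 3–4 weeks.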

[5] = system: CHEAL (Lambsquarters, Common); experiment: Preemergence herbicidal evaluation; assay type: in vivo, Chenopodium album; conditions: rated 4-5 weeks after treatment
How it was run: (§2)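 Scores (0–9) reflect visual comparison with control plants for stand, vigor, malformation, size and chlorosis. Compound was applied to the soil after sowing, before emergence, as an aqueous acetone spray (about 0.0156–0.500 kg/ha), and cups were kept in a greenhouse for 4–5 weeks.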

[6] = system: CASOB (Sicklepod); experiment: Postemergence herbicidal evaluation; assay type: in vivo, Cassia obtusifolia; conditions: postemergence
How it was run: as §1

[7] = system: ORYSAT (Rice, Tebonnet); experiment: Preemergence herbicidal evaluation; assay type: in vivo, Oryza sativa, (L.) Tebonnet; conditions: rated 4-5 weeks after treatment
How it was run: as §2

[8] = system: CHEAL (Lambsquarters, Common); experiment: Postemergence herbicidal evaluation; assay type: in vivo, Chenopodium album; conditions: postemergence
How it was run: as §1

[9] = system: ORYSAT (Rice, Tebonnet); experiment: Rice tolerance to post-transplant applications, flooded paddy conditions (Table III); assay type: in vivo, Oryza sativa, (L.) Tebonnet; conditions: in vivo
How it was run: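 Two ten-day-old Tebonnet seedlings transplanted into flooded silt loam (water 1.5 to 3 cm above soil); three days later the water surface was treated with compound in aqueous/acetone 50/50 at about 0.0313 to 0.500 kg/ha. Visual 0-9 injury rating versus control after three to four weeks in greenhouse.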

CCOC(=O)CN1C(=O)C(CC(=O)O)S/C1=N/c1cc(-n2c(=O)cc(C(F)(F)F)n(C)c2=O)c(F)cc1Cl (stereo not drawn) [Compound 16]
TRZAWR herbicidal rating ([1]; rate 0.0157 kg/ha): 7.5 | TRZAWR herbicidal rating ([1]; rate 0.0313 kg/ha): 6.5 | TRZAWR herbicidal rating ([1]; rate 0.0625 kg/ha): 7.5 | TRZAWR herbicidal rating ([1]; rate 0.1250 kg/ha): 7.9 | TRZAWR herbicidal rating ([1]; rate 0.2500 kg/ha): 8.5 | Herbicidal rating ORYSAT (rice tolerance) [2]: 0.0 | GLXMA preemergence herbicidal rating ([3]; rate 0.0156 kg/ha): 0.0 | GLXMA preemergence herbicidal rating ([3]; rate 0.0313 kg/ha): 0.0 | GLXMA preemergence herbicidal rating ([3]; rate 0.0625 kg/ha): 2.0 | GLXMA preemergence herbicidal rating ([3]; rate 0.1250 kg/ha): 2.0 | GLXMA preemergence herbicidal rating ([3]; rate 0.2500 kg/ha): 3.5 | GLXMA preemergence herbicidal rating ([3]; rate 0.5000 kg/ha): 7.0 | Herbicidal rating MOOVA ([4]; rate 0.0313 kg/ha): 9.0 | Herbicidal rating MOOVA ([4]; rate 0.0625 kg/ha): 9.0 | Herbicidal rating MOOVA ([4]; rate 0.1250 kg/ha): 9.0 | Herbicidal rating MOOVA ([4]; rate 0.2500 kg/ha): 3.0 | CHEAL preemergence herbicidal rating ([5]; rate 0.0156 kg/ha): 5.7 | CHEAL preemergence herbicidal rating ([5]; rate 0.0313 kg/ha): 8.4 | CHEAL preemergence herbicidal rating ([5]; rate 0.0625 kg/ha): 8.8 | CHEAL preemergence herbicidal rating ([5]; rate 0.1250 kg/ha): 9.0 | CHEAL preemergence herbicidal rating ([5]; rate 0.2500 kg/ha): 9.0 | CHEAL preemergence herbicidal rating ([5]; rate 0.5000 kg/ha): 9.0 | CASOB herbicidal rating ([6]; rate 0.0157 kg/ha): 9.0 | CASOB herbicidal rating ([6]; rate 0.0313 kg/ha): 6.2 | CASOB herbicidal rating ([6]; rate 0.0625 kg/ha): 8.0 | CASOB herbicidal rating ([6]; rate 0.1250 kg/ha): 9.0 | CASOB herbicidal rating ([6]; rate 0.2500 kg/ha): 9.0 | ORYSAT preemergence herbicidal rating ([7]; rate 0.0156 kg/ha): 0.1 | ORYSAT preemergence herbicidal rating ([7]; rate 0.0313 kg/ha): 0.3 | ORYSAT preemergence herbicidal rating ([7]; rate 0.0625 kg/ha): 1.0 | ORYSAT preemergence herbicidal rating ([7]; rate 0.1250 kg/ha): 2.2 | ORYSAT preemergence herbicidal rating ([7]; rate 0.2500 kg/ha): 4.3 | ORYSAT preemergence herbicidal rating ([7]; rate 0.5000 kg/ha): 6.4 | CHEAL herbicidal rating ([8]; rate 0.0157 kg/ha): 9.0 | CHEAL herbicidal rating ([8]; rate 0.0313 kg/ha): 8.2 | CHEAL herbicidal rating ([8]; rate 0.0625 kg/ha): 9.0 | CHEAL herbicidal rating ([8]; rate 0.1250 kg/ha): 9.0 | CHEAL herbicidal rating ([8]; rate 0.2500 kg/ha): 9.0 | Herbicidal rating ORYSAT (rice tolerance) [9]: 0.0
